{"source": "patent US5616604A", "about": "“Aminopyrrolizinone analogues for anti-inflammation and analgesia (II)” (priority 1996, dated 1997)", "key": {"[1]": {"tested_on": "mouse writhing induced by acetic acid", "test": "inhibition of acetic acid-induced writhe in mice", "type": "in vivo", "settings": "oral, female mice, dose/LD50: SFZ-47 1/15, SFZ-58 1/10, ibuprofen 1/5, indomethacin 1/4; for Numb. of writhing (x ± SD): 0.7% acetic acid i.p. 1 h later, 20 min observation, N.S. 17.0 ± 6.8; for Rate of inhibition (%): writhing vs normal saline", "protocol": "The influence of SFZ-47, 58 on inhibition of acetic acid-induces writhe.\nSFZ-47 and SFZ-58 were suspended in 0.5% carboxymethylcellulose (CMC) and administered per os. to female mice of weight 18-24 g. 1 hour later, 0.2 ml of a 0.7% solution of acetic acid was injected to mouse by intraperironeally. The animals were observed during the next 20 min. for writhe."}, "[2]": {"tested_on": "carrageenin-induced paw edema", "test": "inhibition of carrageenin-induced paw edema in rat", "type": "in vivo", "settings": "oral, male rats, dose/LD50: SFZ-47 1/15, SFZ-58 1/10, ibuprofen 1/5, indomethacin 1/4; for carrageenin-induced paw edema, 1 hour: N.S. 0.40 ± 0.00; for carrageenin-induced paw edema, 2 hours: N.S. 0.78 ± 0.09; for carrageenin-induced paw edema, 3 hours: N.S. 0.75 ± 0.09; for carrageenin-induced paw edema, 4 hours: N.S. 0.75 ± 0.05; for carrageenin-induced paw edema, 5 hours: N.S. 0.76 ± 0.09", "protocol": "The influence of SFZ-47, 58 on inhibition of Carrageenin-Induced Paw Edema in Rat.\nThe test agent was administered by oral liquid to male rats of weight 140-180 g. 0.05 ml of 1% carrageenin injected into the pad of the right hind paw 1 hour later. The perimeter of the rat ankles were measured each hour after compound administration."}, "gastric mucosa of rats": {"tested_on": "gastric mucosa of rats", "test": "effects on gastric mucosa of rats (ulcer index)", "type": "in vivo, rat", "settings": "n = 5, SFZ-47 400 mg/kg, SFZ-58 300 mg/kg, ibuprofen 200 mg/kg, indomethacin 10 mg/kg", "description": "Effects of SFZ-47 and SFZ-58 on gastric mucosa of rats"}, "cerebral circulation": {"tested_on": "cerebral circulation", "settings": "prior art, cited from earlier work"}, "splanchnic vascular bed": {"tested_on": "splanchnic vascular bed", "settings": "prior art, in words; cited from earlier work"}}, "data": [{"smiles": "CC(C)Cc1ccc(C(C)C(=O)O)cc1", "note": "(stereo not shown) [Ibuprofen]", "values": [{"measurement": "Numb. of writhing (x ± SD)", "setting": "[1]", "value": "4.3 ± 3.9"}, {"measurement": "Rate of inhibition (%)", "setting": "[1]", "value": 75, "unit": "%"}, {"measurement": "carrageenin-induced paw edema, 1 hour", "setting": "[2]", "value": "0.29 ± 0.06"}, {"measurement": "carrageenin-induced paw edema, 2 hours", "setting": "[2]", "value": "0.41 ± 0.11"}, {"measurement": "carrageenin-induced paw edema, 3 hours", "setting": "[2]", "value": "0.52 ± 0.00"}, {"measurement": "carrageenin-induced paw edema, 4 hours", "setting": "[2]", "value": "0.51 ± 0.00"}, {"measurement": "carrageenin-induced paw edema, 5 hours", "setting": "[2]", "value": "0.47 ± 0.10"}, {"measurement": "Ulcer index", "setting": "gastric mucosa of rats", "value": "13.3 ± 4.2", "unit": "mm^2"}]}, {"smiles": "COc1ccc2c(c1)c(CC(=O)O)c(C)n2C(=O)c1ccc(Cl)cc1", "note": "[Indomethacin]", "values": [{"measurement": "Numb. of writhing (x ± SD)", "setting": "[1]", "value": "2.7 ± 1.5"}, {"measurement": "Rate of inhibition (%)", "setting": "[1]", "value": 84, "unit": "%"}, {"measurement": "carrageenin-induced paw edema, 1 hour", "setting": "[2]", "value": "0.21 ± 0.18"}, {"measurement": "carrageenin-induced paw edema, 2 hours", "setting": "[2]", "value": "0.33 ± 0.08"}, {"measurement": "carrageenin-induced paw edema, 3 hours", "setting": "[2]", "value": "0.45 ± 0.08"}, {"measurement": "carrageenin-induced paw edema, 4 hours", "setting": "[2]", "value": "0.43 ± 0.13"}, {"measurement": "carrageenin-induced paw edema, 5 hours", "setting": "[2]", "value": "0.43 ± 0.13"}, {"measurement": "Ulcer index", "setting": "gastric mucosa of rats", "value": "14.0 ± 6.9", "unit": "mm^2"}, {"measurement": "cerebral blood flow response to hypercapnia", "setting": "cerebral circulation; in words", "value": "abolishing cerebral blood flow response to hypercapnia"}, {"measurement": "decrease of cerebral blood flow", "setting": "cerebral circulation", "value": "25-35%"}, {"measurement": "blood flow in the splanchnic vascular bed", "setting": "splanchnic vascular bed", "value": "diminishes blood flow in the splanchnic vascular bed"}]}]}
